In experiment [1] the target is T1, Prostaglandin G/H synthase 1 (Ovis aries, UniProt P05979).
T1 sequence (P05979 whole entry): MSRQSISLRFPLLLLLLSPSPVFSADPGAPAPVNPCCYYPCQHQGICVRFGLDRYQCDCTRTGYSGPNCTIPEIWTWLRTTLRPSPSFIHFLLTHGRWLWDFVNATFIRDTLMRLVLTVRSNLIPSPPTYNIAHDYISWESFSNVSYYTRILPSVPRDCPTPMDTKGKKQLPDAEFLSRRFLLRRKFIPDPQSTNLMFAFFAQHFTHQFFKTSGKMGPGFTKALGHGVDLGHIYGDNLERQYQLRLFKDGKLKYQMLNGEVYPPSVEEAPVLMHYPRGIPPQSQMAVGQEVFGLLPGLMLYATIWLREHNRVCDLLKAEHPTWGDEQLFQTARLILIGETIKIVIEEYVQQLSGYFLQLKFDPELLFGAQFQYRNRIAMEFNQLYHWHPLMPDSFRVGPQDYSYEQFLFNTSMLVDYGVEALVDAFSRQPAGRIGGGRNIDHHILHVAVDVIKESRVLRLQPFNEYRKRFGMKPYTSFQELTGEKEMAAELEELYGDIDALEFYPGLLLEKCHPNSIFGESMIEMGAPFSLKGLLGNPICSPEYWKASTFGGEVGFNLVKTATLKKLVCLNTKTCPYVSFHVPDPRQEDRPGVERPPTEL
The experiment can be described thus: Inhibition of ovine COX1-mediated prostaglandin alpha production by enzyme immuno assay.

Experiment [2] deals with Rattus norvegicus. The experiment can be described thus: Antiinflammatory activity in ip dosed Sprague-Dawley rat assessed as inhibition of carrageenan-induced paw edema measured after 2 hrs plethysmometric analysis. It counts as functional.

SMILES strings stand for the structures. Bounds are passed on as bounds.

For the molecule `O=C(O)c1ccc(N2C(=O)c3cccc4cccc(c34)C2=O)cc1`, in experiment [1], the 50% inhibitory concentration (IC50) is above 100 µM.
For the molecule `NS(=O)(=O)c1ccc(N2C(=O)c3c(Cl)c(Cl)c(Cl)c(Cl)c3C2=O)cc1`, the concentration for half-maximal inhibition (IC50) in experiment [1] was above 100 µM.
The molecule `O=C(O)c1ccc(N2C(=O)c3c(Cl)c(Cl)c(Cl)c(Cl)c3C2=O)cc1` showed an IC50 in experiment [1] above 100 µM.
Take `NS(=O)(=O)c1ccc(CN2C(=O)c3ccc([N+](=O)[O-])cc3C2=O)cc1`: the ED50 in experiment [2] came to 72.4 mg/kg. In experiment [1], this molecule gave an IC50 above 100 µM.
As for `NS(=O)(=O)c1ccc(N2C(=O)c3ccc([N+](=O)[O-])cc3C2=O)cc1`, the ED50 in experiment [2] was 101 mg/kg. The concentration for half-maximal inhibition (IC50) in experiment [1] is above 100 µM.
In experiment [1], `O=C(O)c1ccc(N2C(=O)c3ccc([N+](=O)[O-])cc3C2=O)cc1` showed a concentration for half-maximal inhibition (IC50) above 100 µM.
`NS(=O)(=O)c1ccc(CN2C(=O)c3nccnc3C2=O)cc1`: the 50% effective dose (ED50) in experiment [2] was 126 mg/kg. The molecule also displayed a half-maximal inhibitory concentration (IC50) in experiment [1] above 100 µM.
For `NS(=O)(=O)c1ccc(N2C(=O)c3nccnc3C2=O)cc1`, in that order: 160 mg/kg and above 100 µM.
`O=C(O)c1ccc(N2C(=O)c3nccnc3C2=O)cc1` had an IC50 in experiment [1] above 100 µM.
With `NS(=O)(=O)c1ccc(CN2C(=O)c3cccc4cccc(c34)C2=O)cc1`, the ED50 in experiment [2] is 200 mg/kg. For the same molecule, the half-inhibitory concentration (IC50) in experiment [1] is above 100 µM.
The corresponding values for `NS(=O)(=O)c1ccc(N2C(=O)c3cccc4cccc(c34)C2=O)cc1` are 210 mg/kg and above 100 µM.
`NS(=O)(=O)c1ccc(CN2C(=O)CCC2=O)cc1` displayed a concentration for half-maximal inhibition (IC50) in experiment [1] above 100 µM.
In experiment [1], `NS(=O)(=O)c1ccc(N2C(=O)CCC2=O)cc1` registered an IC50 above 100 µM.
Same read-out and setting: for `O=C(O)c1ccc(N2C(=O)CCC2=O)cc1` the value was above 100 µM; for `NS(=O)(=O)c1ccc(CN2C(=O)[C@H]3CC=CC[C@H]3C2=O)cc1`, above 100 µM.
On the same count and under the same terms, the same measure for `NS(=O)(=O)c1ccc(N2C(=O)[C@H]3CC=CC[C@H]3C2=O)cc1`: above 100 µM; for `O=C(O)c1ccc(N2C(=O)[C@H]3CC=CC[C@H]3C2=O)cc1`: above 100 µM.
Same read-out and setting: the same measure for `NS(=O)(=O)c1ccc(CN2C(=O)c3ccccc3C2=O)cc1`: above 100 µM.
`Cc1ccc2c(c1)C(=O)N(Cc1ccc(S(N)(=O)=O)cc1)C2=O` showed an IC50 in experiment [1] above 100 µM.
In turn, `Cc1ccc2c(c1)C(=O)N(c1ccc(S(N)(=O)=O)cc1)C2=O` returned a concentration for half-maximal inhibition (IC50) in experiment [1] above 100 µM.
The same measure, in the same setting: for `Cc1ccc2c(c1)C(=O)N(c1ccc(C(=O)O)cc1)C2=O` the value was above 100 µM; for `CC(C)(C)c1ccc2c(c1)C(=O)N(Cc1ccc(S(N)(=O)=O)cc1)C2=O`, above 100 µM.
On the same count and under the same terms, the same measure for `CC(C)(C)c1ccc2c(c1)C(=O)N(c1ccc(S(N)(=O)=O)cc1)C2=O`: above 100 µM.
On the same count and under the same terms, the same measure for `CC(C)(C)c1ccc2c(c1)C(=O)N(c1ccc(C(=O)O)cc1)C2=O`: above 100 µM.
On to `NS(=O)(=O)c1ccc(CN2C(=O)c3cc(Cl)c(Cl)cc3C2=O)cc1`, for which the ED50 in experiment [2] came to 100 mg/kg. This molecule gave an IC50 in experiment [1] above 100 µM.
The corresponding values for `NS(=O)(=O)c1ccc(N2C(=O)c3cc(Cl)c(Cl)cc3C2=O)cc1` are 111 mg/kg and above 100 µM.
Turning to `O=C(O)c1ccc(N2C(=O)c3cc(Cl)c(Cl)cc3C2=O)cc1`, in experiment [1], the IC50 was above 100 µM.
On the same count and under the same terms, the same measure for `NS(=O)(=O)c1ccc(CN2C(=O)c3c(Cl)c(Cl)c(Cl)c(Cl)c3C2=O)cc1`: above 100 µM; for `O=C(O)c1ccc(N2C(=O)c3ccccc3C2=O)cc1`: above 100 µM; for `NS(=O)(=O)c1ccc(N2C(=O)c3ccccc3C2=O)cc1`: above 100 µM.
For `Cc1ccc(-c2cc(C(F)(F)F)nn2-c2ccc(S(N)(=O)=O)cc2)cc1` [CELECOXIB], in experiment [2], the ED50 was 83.4 mg/kg.

(Values after ChEMBL document CHEMBL2375216, “Molecular design, synthesis and biological evaluation of cyclic imides bearing benzenesulfonamide fragment as potential COX-2 inhibitors. Part 2” (Bioorg Med Chem Lett, 2013).)
